With `Nc1cc(C(F)(F)F)cc2c1OCC(=O)N2`, the melting point is 199 to 201 °C. The figure for `CCCCCCc1nc(S)c2c(=O)n(C)c(=O)n(CCC)c2n1` is 172 to 174 °C; for `Cc1cccc(-c2nnc(CCl)o2)c1` it is 57 to 59 °C; for `CCC(=O)Nc1ccc(C#N)cc1` it is 174 to 176 °C. Take `N#CCCN(C(=O)CCC(=O)O)c1ccccc1`: the melting point is 98 to 100 °C. `Nc1nc(Cl)c(Cl)c(N)c1Cl` showed a melting point of 206 to 208 °C. Compound `O=c1ccccn1CCO` showed a melting point of 88 to 90 °C. In the case of `Cc1noc(NC(=O)CCl)n1`, the melting point is 161 to 163 °C. As for `Cc1cc(N)n(-c2cc(C(F)(F)F)ccc2Cl)n1`, the melting point lay in the range of 159 to 161 °C. On to `Nc1ccc2nc(N)ccc2c1`, for which the melting point lay within 213 to 215 °C. For `CCC(CC)n1ncc(C(=O)O)c1C` the value was 154 to 156 °C; for `O=C(CO)NCc1ccc(F)cc1`, 102 to 104 °C; for `CC(NC(=O)c1ccccc1N)c1ccccc1` (stereo not given), 127 to 129 °C. Compound `Nc1[nH]ncc1-c1nc2cc(Cl)ccc2s1` gave a melting point of 274 to 276 °C. As for `CC(C)(C)OC(=O)NC(CC(=O)O)C1CC1` (stereo not given), the melting point lay in the range of 111 to 113 °C.

`CC1NC(=O)c2ccccc2NC1=O` (stereo not given): the melting point is 337 to 339 °C. The figure for `O=C(O)CCN1C(=O)c2ccc(Br)cc2C1=O` is 209 to 211 °C. In turn, `C=CCOc1ccccc1C(=O)O` yielded a melting point of 58 to 60 °C. The compound `Cc1c(C(=O)O)sc2ccsc12` showed a melting point of 235 to 237 °C. With `Cc1ccc(S(=O)(=O)c2ccc(NN)cc2)cc1`, the melting point was 173 to 175 °C. Compound `N#Cc1cnccc1N` registered a melting point of 170 to 172 °C. The compound `O=C(O)c1c[nH]c2c(Br)ccc(Br)c2c1=O` had a melting point of 271 to 273 °C. The compound `O=C(Nc1cn[nH]c1)Oc1ccccc1` returned a melting point of 179 to 181 °C.

As for `NC(=S)C1CC1`, the melting point was in the range of 112 to 114 °C.

`O=C(O)C1(Cc2nc3ccccc3[nH]2)CCCC1` showed a melting point of 255 to 257 °C.

Turning to `O=c1cc(CCl)nc2ccc(Cl)cn12`, the melting point was 149 to 151 °C. As for `CC(C)(CCC(=O)O)NC(=O)OCC1c2ccccc2-c2ccccc21`, the melting point fell in the range of 119 to 121 °C. Regarding `CC1(Cc2ccc3c(c2)OCO3)NC(=O)NC1=O` (stereo not given), the melting point was in the range of 183 to 185 °C. For `ClCc1nc(-c2ccc(Br)s2)no1` the value was 42 to 44 °C. Compound `Cn1c(C(=O)O)c(Cl)c2ccccc21` gave a melting point of 233 to 235 °C. Take `CN(CCO)c1ccc([N+](=O)[O-])cc1`: the melting point lay in the range of 97 to 99 °C. The compound `Cc1ccc2c(CC(=O)O)coc2c1` came in with a melting point of 140 to 142 °C. Regarding `CCCOc1ccc2[nH]cc(CO)c2c1`, the melting point is 89 to 91 °C. Take `O=C(O)c1cccnc1SCC1CCCCC1`: the melting point was in the range of 145 to 147 °C. The compound `O=C(CCl)NCCC(c1ccccc1)c1ccccc1` showed a melting point of 104 to 107 °C.

As to `NCCn1ncc2ccccc2c1=O`, the melting point was 87 to 89 °C.

On to `Cc1cccc(-n2c(C)cc(C(=O)CCl)c2C)c1`, for which the melting point was in the range of 99 to 101 °C. The figure for `O=C(O)c1cc(Cl)no1` is 139 to 141 °C; for `NNC(=O)c1ccc(NS(=O)(=O)c2cccs2)cc1` it is 178 to 180 °C; for `CN1CCC(O)(c2ccccc2)CC1` it is 111 to 113 °C. In the case of `O=C(O)c1cnc(-c2ccco2)s1`, the melting point was in the range of 237 to 239 °C. `CSc1nsc(N)n1`: the melting point fell in the range of 146 to 148 °C. On to `ON=Cc1c(Cl)nc2ccccn12`, for which the melting point lay within 209 to 211 °C. `O=C(O)C(c1ccccc1)C1CC1` (stereo not given) registered a melting point of 84 to 86 °C.

`CC(C)(C)c1nnc(S)n1N`: the melting point fell in the range of 185 to 189 °C.

`NC(=S)c1cccc(S(=O)(=O)NC2CCCCCCC2)c1`: the melting point lay within 124 to 126 °C. With `COc1cc(OC)cc(N2CCC(Br)C2=O)c1` (stereo not given), the melting point lay within 78 to 80 °C. Take `CN1C(=O)CC(C(=O)O)C1c1cccs1` (stereo not given): the melting point fell in the range of 139 to 141 °C. The figure for `Cc1cc(C)n(Cc2ccc(C(=O)O)cc2)n1` is 179 to 181 °C; for `COC(=O)C(C)(N)C(c1ccccc1)c1ccccc1` (stereo not given) it is 68 to 70 °C; for `O=C(CBr)c1ccc2c(c1)Cc1ccccc1-2` it is 141 to 143 °C. For `O=C(O)CSCc1cccnc1` the value was 109 to 111 °C; for `CC(O)c1ncc(Cl)n1C` (stereo not given), 113 to 115 °C; for `O=C(O)c1cccc(C(F)F)c1`, 125 to 127 °C. `O=C(O)c1cc(OCC(F)(F)F)cc(OCC(F)(F)F)c1` displayed a melting point of 141 to 143 °C. Regarding `COc1cc(NC(=O)OC(C)(C)C)c(Cl)cc1C(=O)O`, the melting point was in the range of 155 to 157 °C. The figure for `Cc1cc(NS(=O)(=O)c2cccc(C(=O)O)c2)no1` is 195 to 197 °C; for `Cc1ccc(Nc2ncccc2N)cc1` it is 144 to 146 °C. Take `NNc1nc2cc(F)c(F)cc2[nH]1`: the melting point is 221 to 223 °C.

In turn, `CC1=CC(=O)N(C2CCCCC2)C1=O` showed a melting point of 99 to 101 °C. Compound `O=C(O)c1cnn(C2CCCCC2)c1` yielded a melting point of 197 to 199 °C. On to `Nc1ccc(-c2nncn2-c2ccccc2)cn1`, for which the melting point was 219 to 221 °C.

`CC(C)(C)OC(=O)N1C(=O)NC(C)(C)C1=O`: the melting point was in the range of 152 to 154 °C. With `Cc1ccc(-n2nc(C(C)C)cc2N)cc1`, the melting point was 47 to 49 °C.

`CCOc1cc(C=O)ccc1OC(F)F` gave a melting point of 30 to 32 °C. The compound `Nc1ccc(N2CCC(O)CC2)cc1` came in with a melting point of 171 to 173 °C. Compound `CN1C(=O)CCC(C(N)=O)C1c1ccccc1` (stereo not given) came in with a melting point of 222 to 224 °C. In the case of `CCc1ccc2c(c1)C(=O)C(=O)N2CC(=O)O`, the melting point is 166 to 168 °C. The figure for `O=C(O)C1(Br)CCCCC1` is 57 to 59 °C; for `Nc1nc(CN2CCN(c3nccs3)CC2)cs1` it is 169 to 171 °C. Take `O=C(O)c1cccc(S(=O)(=O)Nc2ccc(OCc3ccccc3)cc2)c1`: the melting point fell in the range of 81 to 83 °C. Take `CCCC(C)(N)C(=O)O` (stereo not given): the melting point was in the range of 269 to 271 °C. Consider `NNC(=O)CCc1ccccc1`, for which the melting point fell in the range of 99 to 101 °C. Compound `O=C(O)c1ccc(Sc2ccccc2)c([N+](=O)[O-])c1` returned a melting point of 228 to 230 °C. `O=C(O)c1ccc(F)c(COCc2ccccc2)c1` registered a melting point of 95 to 97 °C.

Take `Cc1cc(C(=O)CCl)c(C)n1-c1cccc(Cl)c1`: the melting point is 116 to 118 °C. Regarding `O=[N+]([O-])c1cc(Cl)cc(Cl)c1S(=O)(=O)Cl`, the melting point was in the range of 218 to 221 °C.

For `Nc1ccc(CC(=O)N2CCCC2)cc1`, the melting point was 107 to 109 °C.

In turn, `CC(=O)CCc1ccc2c(c1)OCO2` displayed a melting point of 50 to 52 °C. For `Cc1cc(F)c(S(N)(=O)=O)cc1F` the value was 132 to 134 °C; for `O=c1cc(O)c2ccccc2o1`, 211 to 215 °C.

Take `CCS(=O)(=O)N1CCCC(C(=O)O)C1` (stereo not given): the melting point was 59 to 61 °C. For `COc1cccc(C(N)CC(=O)O)c1` (stereo not given), the melting point was 223 to 225 °C. With `CN1CCCc2ccc(S(=O)(=O)Cl)cc21`, the melting point lay in the range of 64 to 66 °C. As for `CC1=NN(Cc2ccccc2)C(=O)C1`, the melting point was 175 to 177 °C. Consider `CC1CCCC(C)N1S(=O)(=O)c1ccsc1C(=O)O` (stereo not given), for which the melting point was in the range of 150 to 152 °C. The figure for `Cc1nnc(CO)s1` is 83 to 85 °C; for `O=C(O)CNC(=O)c1ccccc1OC(F)F` it is 66 to 68 °C; for `O=C(CCl)Nc1ncc(Cc2ccc(F)cc2)s1` it is 149 to 151 °C.

Turning to `CC1C(=O)NCCN1C(=O)c1ccc(Cl)s1` (stereo not given), the melting point lay within 149 to 151 °C. For the compound `Cc1ccc(-n2[nH]c(-c3ccco3)cc2=N)cc1`, the melting point lay in the range of 93 to 95 °C. With `O=C(O)CSCc1nc2sc3c(c2c(=O)[nH]1)CCC3`, the melting point lay within 198 to 200 °C. As for `Cc1ccc(OCC(=O)O)c(C=O)c1`, the melting point fell in the range of 144 to 146 °C. Compound `CCCCN(C)c1ccc(C(=O)O)cc1` registered a melting point of 134 to 136 °C. On to `COC(=O)c1cc(NS(=O)(=O)c2cccs2)cc(NS(=O)(=O)c2cccs2)c1`, for which the melting point is 251 to 253 °C.

For the compound `O=C(O)c1cn(-c2cccc(C(F)(F)F)c2)nn1`, the melting point fell in the range of 149 to 151 °C. The figure for `CC(C)(C)c1ncc(C(=O)O)s1` is 204 to 206 °C; for `O=C(O)COc1ccc(Oc2ccccc2)cc1` it is 127 to 129 °C; for `COc1ccc(NC(=O)CCl)cc1S(=O)(=O)N1CCCCC1` it is 142 to 144 °C.

In the case of `NNC(=O)Cc1ccc(Cl)cc1`, the melting point was 165 to 167 °C. The compound `CC(=O)Nc1ccc2c(CCl)cc(=O)oc2c1` gave a melting point of 190 to 195 °C. The compound `Nc1cc(Br)ccc1N1CCOCC1` yielded a melting point of 153 to 155 °C. `Nc1nc2c(OCC(F)(F)F)cccc2s1` had a melting point of 170 to 172 °C.

`CCC(C)(C)C1CCc2c(sc(NC(=O)CCl)c2C#N)C1` (stereo not given) showed a melting point of 100 to 102 °C. As to `Cc1nn(C)c(C)c1CC(C)C(=O)O` (stereo not given), the melting point lay within 125 to 127 °C.

Compound `CNc1cccnc1N1CCCC1` yielded a melting point of 105 to 107 °C. `CS(=O)(=O)Cc1ccc(C(=O)O)cc1` registered a melting point of 253 to 255 °C. The figure for `CC1CC(C)CN(c2ccc(C(=O)O)cc2[N+](=O)[O-])C1` (stereo not given) is 167 to 169 °C; for `N#CCC(=O)c1ccc(Cl)cc1F` it is 79 to 81 °C; for `COC(=O)c1ccc2nnn(O)c2c1` it is 166 to 168 °C. `CN(C)S(=O)(=O)CCC(=O)O`: the melting point is 121 to 123 °C. On to `O=C(O)c1c[nH]c2nccc(Cl)c12`, for which the melting point lay within 189 to 191 °C.

The compound `CC(C(=O)O)n1nnnc1C(C)(C)C` (stereo not given) gave a melting point of 171 to 173 °C. Consider `NNc1cccnc1Cl`, for which the melting point fell in the range of 149 to 151 °C. With `Cc1ccc(-n2nnnc2S)cc1C`, the melting point was in the range of 110 to 112 °C. With `O=C(O)CSc1ccccc1Cl`, the melting point fell in the range of 115 to 117 °C. `COc1cc(C#N)ccc1OCC(=O)O` gave a melting point of 154 to 156 °C. The figure for `O=C(Nc1nnc(C2CC2)s1)OCC(F)(F)F` is 197 to 199 °C. The compound `COc1ccc(C(=O)Nc2ccc(C(=O)O)cc2)cc1OC` registered a melting point of 259 to 261 °C. In turn, `CC(CS(=O)(=O)c1ccc(Br)cc1)C(=O)O` (stereo not given) displayed a melting point of 144 to 146 °C.

In general, melting point refers to the temperature of the solid-liquid transition.

For the origin of these results see a melting point compilation (Tetko et al.).
